Format in all cases: cell-based, HIV-1
In assay [1] the test system is Virus 1 (recombinant generated from plasma of Subject 1 by FPH or RVA). In words: MTT-reduction cell viability drug susceptibility assay, recombinant Virus 1 (FPH or RVA). The conditions noted are these: for fold resistance: relative to WT (HXB2); for fold higher susceptibility when generated by RVA than when generated by FPH: virus 1. The protocol:
(§1) As previously discussed, recombinant virus produced by the method of the present invention may be used in drug sensitivity assays. A suitable drug sensitivity assay is described in Pauwels et al. (1988) and is an MTT-reduction colorimetric cell viability assay. Cells infected with the virus are plated into the wells of tissue culture plates and incubated with the anti-viral drug to be tested. After incubation, MTT (3-(4,5-dimethylthiazol-2-yl)-2,5diphenyltetrazolium bromide) is added to the cell culture. Only live cells produce the blue formazan product after incubation with MTT. This product is detectable by reading the optical absorbance at 540-590 nm, so the absorbance reading gives a measure of the cells which have been protected from the virus by the anti-viral drug. Viral drug resistance results in a decrease in surviving cells and a decrease in absorbance at 540-590 nm.
(§2) In this experiment, plasma from three HIV-1 infected subjects experiencing virological failure on PI-containing therapy regimens was used as the basis for the FPH to generate recombinant virus. […] Virus from Subject 2 had L10I, M46I, I50V and a Lp1′F mutation at the p1/p6 protease cleavage site, all of which are mutations typical of high level APV resistance.
(§3) The LTR was added to the nested products by PMR prior to transfection. The PMR reactions successfully added the LTR sequences to the nested products (FIG. 9). The first round RT-PCR reactions were also used as templates to generate products for RVA by cotransfection with pHXBΔCSPRTC. Triplicate PCR products were cotransfected into MT4 cells with the linearised plasmid pHXBTOPO1, in the case of the PMR products, and with linearised pHXBΔCSPRTC in for the RVA products. Viral cytopathic effect was observed and titratable virus was harvested in the supernatants. No virus was isolated from virus 2 using FPH and only one of the triplicate cultures from virus 3 yielded infectious virus. All of the RVA cultures produced virus.
(§4) In order to determine whether the extra sequences in the FPH recombinants contain determinants of susceptibility, the recombinant viruses were tested against several drugs. Drug susceptibility was determined by the 3-(4,5dimethylthiazol-2-yl)-2,5-diphenyltetrazolium bromide (MTT)-reduction calorimetric cell viability assay described previously (Pauwels et al. 1988; Robinson et al., 2000). Changes in susceptibility were defined as fold increase in IC50 relative to WT (HXB2). Nucleotide sequences were determined using ABI 3700 capillary sequencers and Big Dye terminators. […] Virus 1 also gave a 2.2-fold (Table 3A) or 4-fold (Table 3B) higher susceptibility to IDV and 2.9-fold (Table 3A) or 3.2-fold higher susceptibility to APV when generated by RVA.

Assay [2] concerns Virus 2 (recombinant generated from plasma of Subject 2 by RVA). In words: MTT-reduction cell viability drug susceptibility assay, recombinant Virus 2 (RVA). The conditions noted are these: for EC50 / fold resistance: Table 3A, Virus 2, method RVA; for fold resistance: relative to WT (HXB2); for resistance, fold higher than wild-type: Virus 2 obtained via the RVA. The protocol: as §1, §2, §3, §4
A general note: Tetrazolium dyes change colour on reduction, which living cells bring about.

Assay [3] relates to Virus 3 (recombinant generated from plasma of Subject 3 by FPH or RVA). Description: MTT-reduction cell viability drug susceptibility assay, recombinant Virus 3 (FPH or RVA). The conditions noted are these: for fold resistance: relative to WT (HXB2); for difference in susceptibility between the two techniques (RVA vs FPH): virus 3. The protocol:
as §1, §2, §3, §4

The subject of the next assay is HXB2. Description: MTT-reduction cell viability drug susceptibility assay, wild type HXB2 (Table 3A). The conditions noted are these: for fold resistance: HXB2 wild type (reference). The protocol: as §1, §4
For assay [4], the system named is Virus 3.1, 3.2, 3.3 (recombinants by FPH or RVA). In words: MTT-reduction cell viability drug susceptibility assay, viruses 3.1-3.3 (Table 3B). The conditions noted are these: for fold resistance: Table 3B, relative to WT. The method, then:
as §1, §3, §4

Assay [5] deals with Virus 4.1, 4.2, 4.3 (recombinants by RVA). In words: MTT-reduction cell viability drug susceptibility assay, viruses 4.1-4.3 (Table 3B). The conditions noted are these: for EC50: Human immunodeficiency virus 1, Table 3B; for fold resistance: Table 3B, relative to WT. The protocol:
as §1, §3, §4

For assay [6], the system named is Virus 5.1 (FPH), 5.2 (RVA). Description: MTT-reduction cell viability drug susceptibility assay, viruses 5.1 and 5.2 (Table 3B). The conditions noted are these: for EC50: Human immunodeficiency virus 1, Table 3B; for fold resistance: Table 3B, relative to WT. The protocol: as §1, §3, §4
Assay [7] deals with WT (HXB2) generated by FPH or RVA. Description: MTT-reduction cell viability drug susceptibility assay, WT (Table 3B). The conditions noted are these: for EC50: Human immunodeficiency virus 1, HXB2, Table 3B; for fold resistance: Table 3B. The protocol:
as §1, §4

[8] abbreviates: Table 3A, Virus 1, method FPH, read-out: Drug EC50.
The mark [9] stands for this setting: Table 3A, Virus 1, method RVA, read-out: Drug EC50.

The EC50 is the concentration giving half of the maximal effect.

SMILES strings stand for the structures. Like-named read-outs stand apart in the source and are kept apart here. A value given as a limit tells only on which side of the number the result lay.

`CC(C)CN(C[C@@H](O)[C@H](Cc1ccccc1)NC(=O)O[C@H]1CCOC1)S(=O)(=O)c1ccc(N)cc1` [APV, amprenavir]: the 50% effective concentration (EC50) in assay [1] (Human immunodeficiency virus 1, Table 3A, Virus 1, method RVA, read-out: Drug EC50) amounted to 0.128 µM; in assay [1] (Human immunodeficiency virus 1, read-out: Drug EC50, Table 3A, Virus 1, method FPH) it was 0.366 µM; in assay [2] (Human immunodeficiency virus 1) it was 1.07 µM; in assay [3] (Human immunodeficiency virus 1, Table 3A, Virus 3, method FPH), 0.718 µM; in assay [3] (Human immunodeficiency virus 1, Table 3A, Virus 3, method RVA), 0.396 µM; with HXB2 (Human immunodeficiency virus 1, HXB2 wild type), 0.0675 µM. The EC50 was 0.865 µM in assay [4] (Human immunodeficiency virus 1, Table 3B, Virus 3.1, method FPH, read-out: Drug EC50); 0.691 µM in assay [4] (Human immunodeficiency virus 1, Table 3B, Virus 3.2, method FPH, read-out: Drug EC50); 0.245 µM in assay [4] (Human immunodeficiency virus 1, Table 3B, Virus 3.2, method RVA, read-out: Drug EC50); 0.619 µM in assay [4] (Human immunodeficiency virus 1, Table 3B, Virus 3.3, method FPH, read-out: Drug EC50); 0.211 µM in assay [4] (Human immunodeficiency virus 1, read-out: Drug EC50, Table 3B, Virus 3.1, method RVA); greater than 2.5 µM in assay [5] (Virus 4.1, method RVA). The EC50 was 2.01 µM in assay [5] (Virus 4.2, method RVA); greater than 2.5 µM in assay [5] (Virus 4.3, method RVA); 1.57 µM in assay [6] (Virus 5.1, method FPH); 0.802 µM in assay [6] (Virus 5.2, method RVA); 0.113 µM in assay [7] (method FPH); 0.121 µM in assay [7] (method RVA). Also, the fold resistance entry in assay [1] (Table 3A, Virus 1, method FPH) is “(5.4) fold”; in assay [1] (Table 3A, Virus 1, method RVA), “(1.9) fold”; in assay [2] it was “(16) fold”; in assay [3] (Table 3A, Virus 3, method FPH) it was “(11) fold”; in assay [3] (Table 3A, Virus 3, method RVA) it was “(5.9) fold”; in the assay on HXB2 it was “(1.0) fold”. The fold resistance entry is “(7.7) fold” in assay [4] (Virus 3.1, method FPH); “(1.7) fold” in assay [4] (Virus 3.1, method RVA); “(6.1) fold” in assay [4] (Virus 3.2, method FPH); “(2.0) fold” in assay [4] (Virus 3.2, method RVA); “(5.5) fold” in assay [4] (Virus 3.3, method FPH); “(>21) fold” in assay [5] (Virus 4.1, method RVA). In addition, the fold resistance result in assay [5] (Virus 4.2, method RVA) was “(17) fold”; in assay [5] (Virus 4.3, method RVA), “(>21) fold”; in assay [6] (Virus 5.1, method FPH), “(14) fold”; in assay [6] (Virus 5.2, method RVA) it was “(6.6) fold”; in assay [7] (method FPH (reference)), “(1.0) fold”; in assay [7] (method RVA (reference)), “(1.0) fold”. For the same compound, the “fold higher susceptibility when generated by RVA than when generated by FPH” value in assay [1] (Table 3A experiment) is reported as 2.9 fold; in assay [1] (Table 3B experiment), 3.2 fold. Moreover, the “resistance, fold higher than wild-type” value is greater than 21 fold in assay [2] (Table 3B experiment) and 16 fold in assay [2] (first printed value (Table 3A experiment)). For the same compound, the “difference in susceptibility between the two techniques (RVA vs FPH)” value was found to be 2.0 fold in assay [3] (Table 3B experiment) and 1.9 fold in assay [3] (first of the two printed values (Table 3A experiment)).
Turning to `Cc1c(O)cccc1C(=O)N[C@@H](CSc1ccccc1)[C@H](O)CN1C[C@H]2CCCC[C@H]2C[C@H]1C(=O)NC(C)(C)C` [NFV], the EC50 in assay [1] (setting [8]) came out at 0.07 µM; in assay [1] (setting [9]), 0.0269 µM; in assay [2], 0.0708 µM; in assay [3] (Table 3A, Virus 3, method FPH), 0.591 µM; in assay [3] (Table 3A, Virus 3, method RVA) it was 0.39 µM; in the assay with HXB2 (HXB2 wild type), 0.0299 µM. Besides, the fold resistance result in assay [1] (Table 3A, Virus 1, method FPH) is “(2.3) fold”; in assay [1] (Table 3A, Virus 1, method RVA) it was “(0.90) fold”; in assay [2] it was “(2.4) fold”; in assay [3] (Table 3A, Virus 3, method FPH), “(20) fold”; in assay [3] (Table 3A, Virus 3, method RVA), “(13) fold”; in the assay on HXB2, “(1.0) fold”.
`CC(C)c1nc(CN(C)C(=O)N[C@H](C(=O)N[C@@H](Cc2ccccc2)C[C@H](O)[C@H](Cc2ccccc2)NC(=O)OCc2cncs2)C(C)C)cs1` [RTV]: the EC50 in assay [1] (setting [8]) came out at 0.205 µM; in assay [1] (setting [9]) it was 0.0904 µM; in assay [2], 0.454 µM; in assay [3] (Table 3A, Virus 3, method FPH), 1.79 µM; in assay [3] (Table 3A, Virus 3, method RVA), 1.4 µM; in the assay on HXB2 (HXB2 wild type), 0.0651 µM. Moreover, the fold resistance result was “(3.1) fold” in assay [1] (Table 3A, Virus 1, method FPH); “(1.4) fold” in assay [1] (Table 3A, Virus 1, method RVA); “(7.0) fold” in assay [2]; “(27) fold” in assay [3] (Table 3A, Virus 3, method FPH); “(22) fold” in assay [3] (Table 3A, Virus 3, method RVA); “(1.0) fold” with HXB2.
As to `CC(C)(C)NC(=O)[C@@H]1C[C@@H]2CCCC[C@@H]2CN1C[C@@H](O)[C@H](Cc1ccccc1)NC(=O)[C@H](CC(N)=O)NC(=O)c1ccc2ccccc2n1` [SQV], the EC50 in assay [1] (setting [8]) worked out at 0.0131 µM; in assay [1] (setting [9]) it was 0.00656 µM; in assay [2], 0.00906 µM; in assay [3] (Table 3A, Virus 3, method FPH), 0.0164 µM; in assay [3] (Table 3A, Virus 3, method RVA) it was 0.0137 µM; with HXB2 (HXB2 wild type) it was 0.0131 µM. The fold resistance entry in assay [1] (Table 3A, Virus 1, method FPH) is listed as “(1.0) fold”; in assay [1] (Table 3A, Virus 1, method RVA), “(0.5) fold”; in assay [2], “(0.69) fold”; in assay [3] (Table 3A, Virus 3, method FPH), “(1.3) fold”; in assay [3] (Table 3A, Virus 3, method RVA), “(1.0) fold”; in the assay on HXB2, “(1.0) fold”.

For the origin of these results see patent US20040038199A1, “Phenotyping assay and reagents therefor” (priority 2000, published 2004).
